Several values for one entry are separate records, joined by “and”; a condition that tells them apart may be missing. Identical values can stand only once. Counter-ions that a name gives are not always drawn. Like-named read-outs stand apart in the source and are kept apart here.
Key:
MDA-MB-435 = assay: In vitro tumor cell proliferation, MDA-MB-435; assay type: cell-based; conditions: values given with an undefined *, read-out: In vitro Tumor Cell Proliferation (IC50, μM) Breast MDA-MB-435
Procedure, shortened: (§1)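 Tumor cells were seeded overnight at 37° C, then exposed to drug diluted in culture medium for 3 days, refed with fresh drug-containing medium and kept 4 more days. Cells were fixed with 10% trichloroacetic acid and stained with 0.4% sulforhodamine B; alternatively, CyQUANT read proliferation after 3 days' drug exposure.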

cdk4/cyclin D1 = target: T1, cdk4/cyclin D1 (Homo sapiens, UniProt P11802); assay: Cyclin-dependent Kinase 4 Assay (cdk4/cyclin D1, GST-Rb substrate); assay type: biochemical; conditions: cdk4/cyclin D1 insect cell lysate, 10 μM ATP, 30 min at 37° C., several values = separate determinations, read-out: CDK4 Inhibition IC50
T1 construct: made in house; host or cells: Sf9 insect cells (Bac-to-Bac baculovirus, pFastBac)
Procedure, shortened: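 IC50 against cdk4 measured by scintillation counting of bead-bound GST-Rb (0.5 μg) after filtration and four TNEN washes. Reaction was 30 min at 37 °C in HEPES pH 7.5 buffer with 10 mM MgCl2 and 1 mM EGTA. Enzyme source was 0.1 μg Sf9 lysate coinfected with cdk4 and cyclin D1.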

Colo-205 = assay: In vitro tumor cell proliferation, Colo-205; assay type: cell-based; conditions: values given with an undefined *, read-out: In vitro Tumor Cell Proliferation (IC50, μM) Colon Colo-205
Procedure, shortened: as §1

PC-3 = assay: In vitro tumor cell proliferation, PC-3; assay type: cell-based, human; conditions: many values given with an undefined *, read-out: In vitro Tumor Cell Proliferation (IC50, μM) Prostate PC-3
Procedure, shortened: as §1

A549 = assay: In vitro tumor cell proliferation, A549; assay type: cell-based, human; conditions: many values given with an undefined *, read-out: In vitro Tumor Cell Proliferation (IC50, μM) Lung A549
Procedure, shortened: as §1

cdk2/cyclin E = target: T2, cdk2/cyclin E (Homo sapiens, UniProt P24941); assay: Cyclin-Dependent Kinase 2 Assay (cdk2/cyclin E, GST-Rb substrate); assay type: biochemical; conditions: recombinant cdk2/cyclin E, 10 μM ATP, 30 min at 30° C., several values in a cell = separate determinations, read-out: CDK-2 Inhibition IC50
T2 construct: made in house; host or cells: insect cells (baculovirus co-infection)
Experimental: Substrate: GST-Rb as described above for cdk4/cyclin D1
Assay conditions for cdk2/cyclin E were identical to those for cdk4/cyclin D1 including the substrate. The concentration of recombinant cdk2/cyclin E in the assay was 0.1 μg per 100 μl assay. Incubation was for 30 min at 30° C.

HT-29 = assay: In vitro tumor cell proliferation, HT-29; assay type: cell-based, human; conditions: many values given with an undefined *, read-out: In vitro Tumor Cell Proliferation (IC50, μM) Colon HT-29
Procedure, shortened: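 Growth was quantified either with CyQUANT, plates frozen at −80° C after 3 days of drug, or by sulforhodamine B staining of TCA-fixed cells after 3 days of drug plus 4 days with fresh drug. Trypan blue-excluding HT-29 cells were plated overnight at 37° C before dosing.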

DU145 = assay: In vitro tumor cell proliferation, DU145; assay type: cell-based, human; conditions: many values given with an undefined *, read-out: In vitro Tumor Cell Proliferation (IC50, μM) Prostate DU145
Procedure, shortened: as §1

MDA-MB-231 = assay: In vitro tumor cell proliferation, MDA-MB-231; assay type: cell-based, human; conditions: sulforhodamine B or CyQUANT assay, many values given with an undefined *, read-out: In vitro Tumor Cell Proliferation (IC50, μM) Breast MDA-MB-231
Procedure, shortened: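 Proliferation quantified by SRB staining of TCA-fixed cells after 3 days of drug plus 4 days with replenished drug, following overnight attachment at 37 °C.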

DMS-114 = assay: In vitro tumor cell proliferation, DMS-114; assay type: cell-based, human; conditions: many values given with an undefined *, read-out: In vitro Tumor Cell Proliferation (IC50, μM) Lung DMS-114
Procedure, shortened: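 Human small cell lung carcinoma DMS-114 cells plated overnight, then drug-treated for 3 days, medium and drug renewed, and incubated 4 more days. Growth read by sulforhodamine B staining after TCA fixation; alternatively by CyQUANT after 3 days' drug exposure and freezing at −80 °C.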

[1] = Homo sapiens, MDA-MB-435, MDA-MB-435
[2] = Homo sapiens, COLO 205, Colo-205
[3] = Homo sapiens, MDA-MB-231, MDA-MB-231

T1 sequence (P11802 whole entry): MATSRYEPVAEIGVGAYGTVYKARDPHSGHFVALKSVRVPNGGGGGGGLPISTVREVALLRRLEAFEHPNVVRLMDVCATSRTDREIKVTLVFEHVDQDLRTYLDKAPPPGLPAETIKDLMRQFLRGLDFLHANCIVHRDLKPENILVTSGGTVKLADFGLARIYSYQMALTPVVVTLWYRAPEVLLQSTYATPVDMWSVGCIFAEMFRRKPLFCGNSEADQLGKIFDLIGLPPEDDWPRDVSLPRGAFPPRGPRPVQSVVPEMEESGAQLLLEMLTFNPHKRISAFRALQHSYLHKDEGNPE
T1 sequence (P24385 whole entry partner): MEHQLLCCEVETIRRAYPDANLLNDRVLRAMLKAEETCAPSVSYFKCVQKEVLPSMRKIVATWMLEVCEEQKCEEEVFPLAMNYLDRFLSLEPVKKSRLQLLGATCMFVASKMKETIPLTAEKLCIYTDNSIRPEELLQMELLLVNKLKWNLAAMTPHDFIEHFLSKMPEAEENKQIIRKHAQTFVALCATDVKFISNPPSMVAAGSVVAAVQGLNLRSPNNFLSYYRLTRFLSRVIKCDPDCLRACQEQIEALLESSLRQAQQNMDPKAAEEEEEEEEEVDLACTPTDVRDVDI

| Structure (SMILES) | IC50 (MDA-MB-435; [1]) [µM] | IC50 (cdk4/cyclin D1) | IC50 (Colo-205; [2]) [µM] | IC50 (PC-3; Homo sapiens, PC-3, PC-3) [µM] | IC50 (A549; Homo sapiens, A549, A549) [µM] | IC50 (cdk2/cyclin E) | IC50 (HT-29; Homo sapiens, HT-29, HT-29) [µM] | IC50 (DU145; Homo sapiens, DU-145, DU145) [µM] | IC50 (MDA-MB-231; [3]) [µM] | IC50 (DMS-114; Homo sapiens, DMS-114, DMS-114) [µM] | IC50 (MDA-MB-435; MDA-MB-435, trihydrochloride) | IC50 (Colo-205; Colo-205, trihydrochloride) | IC50 (PC-3; PC-3, trihydrochloride) | IC50 (HT-29; HT-29, trihydrochloride) | IC50 (DU145; DU145, trihydrochloride) | IC50 (MDA-MB-231; MDA-MB-231, trihydrochloride) | IC50 (DMS-114; DMS-114, trihydrochloride) | other results |
| --- | --- | --- | --- | --- | --- | --- | --- | --- | --- | --- | --- | --- | --- | --- | --- | --- | --- | --- |
| N[C@H]1CC[C@H](Nc2nc(NC3CCN(Cc4cccc(F)c4F)CC3)c3ncn(C4CCCC4)c3n2)CC1 [Example 147-e, 2-[Trans-(4-aminocyclohexyl)amino]-6-[4-1-(2,3-difluorobenzyl)]piperidinylamino]-9-cyclopentylpurine trihydrochloride] | 0.62 | 2.7 µM and 4.6 µM | 0.34 | 0.47 | 0.35 | 340 nM and 230 nM and 460 nM | 0.59 | 0.35 | 0.58 | 0.58 | 0.6 µM | 0.32 µM | 0.35 µM | 0.3 µM | 0.41 µM | 0.3 µM | 0.5 µM | IC50 (A549; A549, trihydrochloride): 0.3 µM |
| CCCCCCCCCCCCNc1nc(N[C@H]2CC[C@H](N)CC2)nc2c1ncn2C1CCCC1 [Example 36, 2-[Trans-(4-aminocyclohexyl)amino]-6-(dodecylamino)-9-cyclopentylpurine dihydrochloride] | 4.2 | 4.5 µM | 3.1 | 3.1 | 5.6 | 520 nM | 4 | 5.4 | 3.2 | 3.6 | – | – | – | – | – | – | – | IC50 (MDA-MB-435; MDA-MB-435, dihydrochloride): 2.2 µM; IC50 (PC-3; PC-3, dihydrochloride): 3.8 µM; IC50 (A549; A549, dihydrochloride): 3.1 µM; IC50 (DU145; DU145, dihydrochloride): 3.4 µM; IC50 (DMS-114; DMS-114, dihydrochloride): 3.1 µM |
| N[C@H]1CC[C@H](Nc2nc(NC3CCN(Cc4ccc(C(F)(F)F)cc4)CC3)c3ncn(C4CCCC4)c3n2)CC1 [Example 46, 2-[Trans-(4-aminocyclohexyl)amino]-6-[4-(1-(4-trifluoromethylbenzyl))piperidinylamino]-9-cyclopentylpurine] | – | 20 µM | – | – | – | 500 nM and 450 nM | – | – | – | – | – | – | – | – | – | – | – | IC50 (MDA-MB-435; MDA-MB-435): 0.61 µM and 0.62 µM; IC50 (Colo-205; Colo-205): 0.44 µM and 0.46 µM; IC50 (PC-3; PC-3): 0.39 µM and 0.46 µM; IC50 (A549; A549): 0.28 µM and 0.33 µM; IC50 (HT-29; HT-29): 0.53 µM and 0.44 µM; IC50 (DU145; DU145): 0.36 µM and 0.49 µM; IC50 (MDA-MB-231; MDA-MB-231): 0.46 µM and 0.53 µM; IC50 (DMS-114; DMS-114): 0.35 µM and 0.58 µM |

The next lines start with results.

| IC50 (MDA-MB-435; [1]) [µM] | IC50 (cdk4/cyclin D1) | IC50 (Colo-205; [2]) [µM] | IC50 (PC-3; Homo sapiens, PC-3, PC-3) [µM] | IC50 (A549; Homo sapiens, A549, A549) [µM] | IC50 (cdk2/cyclin E) | IC50 (HT-29; Homo sapiens, HT-29, HT-29) [µM] | IC50 (DU145; Homo sapiens, DU-145, DU145) [µM] | IC50 (MDA-MB-231; [3]) [µM] | IC50 (DMS-114; Homo sapiens, DMS-114, DMS-114) [µM] | IC50 (MDA-MB-435; MDA-MB-435, trihydrochloride) | IC50 (Colo-205; Colo-205, trihydrochloride) | IC50 (PC-3; PC-3, trihydrochloride) | IC50 (HT-29; HT-29, trihydrochloride) | IC50 (DU145; DU145, trihydrochloride) | IC50 (MDA-MB-231; MDA-MB-231, trihydrochloride) | IC50 (DMS-114; DMS-114, trihydrochloride) | Structure (SMILES) | other results |
| --- | --- | --- | --- | --- | --- | --- | --- | --- | --- | --- | --- | --- | --- | --- | --- | --- | --- | --- |
| 3.3 | 1.5 µM and 1.6 µM | 1.7 | 1.9 | 4.4 | 50 nM | 3.4 | 3.9 | 3 | 4.6 | – | – | – | – | – | – | – | N[C@H]1CC[C@H](Nc2nc(N[C@H]3CC[C@H](O)CC3)c3ncn(C4CCCC4)c3n2)CC1 [Example 145a, Trans-2-[Trans-(4-aminocyclohexyl)amino]-6-[(4-hydroxy)cyclohexylamino]-9-cyclopentylpurine dihydrochloride] | IC50 (MDA-MB-435; MDA-MB-435, dihydrochloride): 3.8 µM; IC50 (Colo-205; Colo-205, dihydrochloride): 1.6 µM; IC50 (PC-3; PC-3, dihydrochloride): 2.1 µM; IC50 (A549; A549, dihydrochloride): 4.8 µM; IC50 (HT-29; HT-29, dihydrochloride): 2.3 µM; IC50 (DU145; DU145, dihydrochloride): 3.8 µM; IC50 (MDA-MB-231; MDA-MB-231, dihydrochloride): 2.9 µM; IC50 (DMS-114; DMS-114, dihydrochloride): 3.1 µM |
| 0.6 | 7.2 µM and 4.3 µM | 0.32 | 0.39 | 0.33 | 90 nM and 580 nM and 550 nM and 610 nM | 0.49 | 0.45 | – | 0.62 | 0.65 µM | 0.38 µM | 0.55 µM | 0.47 µM | 0.4 µM | 0.48 µM | 0.48 µM | N[C@H]1CC[C@H](Nc2nc(NC3CCN(Cc4cc(Cl)ccc4Cl)CC3)c3ncn(C4CCCC4)c3n2)CC1 [Example 147-r, 2-[Trans-(4-aminocyclohexyl)amino]-6-[4-[1-(2,5-dichlorobenzyl)]piperidinylamino]-9-cyclopentylpurine trihydrochloride] | – |
| – | – | – | – | – | – | – | – | – | – | 0.47 µM and 0.55 µM | 0.32 µM and 0.35 µM | 0.35 µM and 0.46 µM | 0.41 µM and 0.38 µM | 0.33 µM and 0.35 µM | 0.34 µM and 0.35 µM | 0.4 µM and 0.45 µM | Cc1ccc(CN2CCC(Nc3nc(N[C@H]4CC[C@H](N)CC4)nc4c3ncn4C3CCCC3)CC2)cc1Cl [Example 147-y, 2-[Trans-(4-aminocyclohexyl)amino]-6-[4-[1-(3-chloro-4-methylbenzyl)]piperidinylamino]-9-cyclopentylpurine trihydrochloride] | IC50 (cdk4/cyclin D1; trihydrochloride): 5.4 µM and 4.8 µM; IC50 (A549; A549, trihydrochloride): 0.16 µM and 0.29 µM; IC50 (cdk2/cyclin E; trihydrochloride): 510 nM and 670 nM |
| 0.26 | 0.41 µM | 0.18 | 0.2 | 0.12 | 190 nM and 140 nM | 0.19 | 0.15 | 0.17 | 0.19 | 0.28 µM | – | 0.18 µM | 0.21 µM | – | 0.21 µM | 0.13 µM | N[C@H]1CC[C@H](Nc2nc(NC3CCN(Cc4ccccc4)CC3)c3ncn(C4CCCC4)c3n2)CC1 [Example 33, 2-[Trans-(4-aminocyclohexyl)amino]-6-[4-(1-benzyl)piperidinylamino]-9-cyclopentylpurine trihydrochloride] | – |

— patent publication US6479487B1, “6, 9-disubstituted 2-[trans-(4-aminocyclohexyl)amino] purines” (Aventis Pharmaceuticals Inc., priority 1998, dated 2002)
